Measurements as given in patent publication US6818612B2, “Use of parvovirus capsid particles in the inhibition of cell proliferation and migration” (priority 1998, dated 2004).

What was measured:
human fetal liver cells = assay: Colony formation assay (Stem cell CFU kit, 11 day) of fetal liver cells; format: cell-based
From the text: In a first set of experiments, it was discovered that B19 parvovirus capsids inhibit hematopoiesis and that these molecules could be used to reduce the overproduction of red blood cells, white blood cells, and blood platelets, as is experienced by patients suffering from hematological proliferative diseases, such as Polycytemia Vera. (See FIG. 1A). In a first set of experiments, fresh human fetal liver cells, umbilical cord blood cells, and bone marrow cells were contacted with recombinant B19 parvovirus capsids in a colony formation assay. The general features of a colony formation assay are depicted in FIG. 1B. The ability of the B19 parvovirus capsids to inhibit hematopoiesis was verified by the reduction of colony formation in the presence of the capsids, as compared to untreated control populations of cells. A more detailed description of these experiments is provided below.
To obtain fetal liver tissue, human fetuses 6-12 weeks of gestational age were obtained from legal abortions; the patients had volunteered to donate fetal tissue. Gestational age was estimated according to specific anatomical markers and is given as menstruational age. Abortions were performed with vacuum aspirations. Fetal liver was dissected under sterile conditions, placed in a sterile tube containing RPMI1640 and disintegrated by passage through a vinyl mesh to form a single cell suspension. Nucleated cells were then washed three times, counted and diluted in culture medium.
(§1) A commercial kit—the “Stem cell CFU kit” (GIBCO BRL, Life Technology Inc., NY, USA)—was used to perform the colony formation assays. The kit provides a semi-solid support that mimics the extracellular matrix produced by stromal cells. Other components included in the kit are: Iscove's modified Dulbecco's medium, modified fetal bovine serum, methylcellulose, 2-mercaptoethanol, conditioned medium and erythropoietin. The colonies that were formed in the assay were identified as BFU-E (burst forming unit-erythroid cells) with densely packed hemoglobonized cells, CFU-GM (colony forming units-granulocytes, macrophages) with arrangements of non-hemoglobinized cells, and CFU-GEMM (colony forming units-granulocytes, erythroid cells, macrophages, megakaryocytes) with hemoglobinized cells and small and large peripheral cells.
(§2) Recombinant B19 parvovirus empty capsid particles (Kajigaya et al., Proc Natl Acad Sci USA, 88:4646 (1991)) were prepared in a recombinant baculovirus-insect cell (Spodofera frugiperda) expression system. (Kajigaya et al., Proc Natl Acad Sci USA, 88:4646 (1991)). The isolated or purified capsids were diluted in buffer (20 mM Tris, 0.5M NaCl, pH 8.5) and 30 μL of each dilution was added to approximately 25×10^3 cells (50×10^3 for postnatal cells) in 100 μL of culture medium and incubated for 1 hour at 4° C. The mixtures were then transferred to incubation dishes and culture medium was added to a final volume of 0.5 ml per well. The cells were then incubated for 11 days in a humidified atmosphere at 5% CO2, and were scored for BFU-E, CFU-GM and CFU-GEMM derived colony formation.

[1] = system: hematopoietic cells obtained from the bone marrow of monkeys; assay: Colony formation assay on monkey bone marrow cells (Macaque); format: cell-based; conditions: FIG. 2, varying concentrations of capsid
Protocol: (§3) Additionally, colony formation assays in the presence of B19 parvovirus […] were performed, as described above, using hematopoietic cells obtained from the bone marrow of monkeys (Baboons and Macaques).

adult bone marrow cells = assay: Colony formation assay on adult bone marrow cells; format: cell-based, human; conditions: for Colony Counts (% of medium control) BFU-E / Colony Counts (% of medium control) CFU-GEMM / Colony Counts (% of medium control) CFU-GM: Bone marrow cells, 11 day culture
From the text: as §1, §2
(§4) The inhibitory effect of B19 parvovirus capsids on colony formation was also tested using fresh stem cells derived from cord blood and adult bone marrow samples. Colony formation assays in the presence of B19 parvovirus capsids were performed on cells obtained from umbilical cord blood and bone marrow using the protocol described above. Umbilical cord blood samples were obtained immediately after vaginal delivery from normal births. Samples of adult bone marrow were obtained from healthy allogeneic donors. Suspensions of fresh cells were heparinized and diluted in 0.9% NaCl and separated on Lymphoprep (Nycomed, Parma, Oslo, Norway) for gradient centrifugation at 2000 rpm for 20 min. Cells were carefully removed with a Pasteur pipette, washed three times in 0.9% NaCl, counted and diluted in culture medium in preparation for the colony formation assays.

[2] = system: umbilical cord blood cells; assay: Colony formation assay on cord blood cells; format: cell-based, human; conditions: for Colony Counts (% of medium control) BFU-E / Colony Counts (% of medium control) CFU-GEMM / Colony Counts (% of medium control) CFU-GM: Cord blood cells, 11 day culture
From the text: as §1, §2, §4

[3] = system: hematopoietic cells obtained from the bone marrow of monkeys; assay: Colony formation assay on monkey bone marrow cells (Baboon); format: cell-based; conditions: FIG. 2, varying concentrations of capsid
Protocol: as §3

[4] = capsid only, B19 parvovirus capsid 0.14 μg/ml, fetal liver cells, 11 day culture
[5] = capsid only, B19 parvovirus capsid 7 μg/ml, fetal liver cells, 11 day culture
[6] = fetal liver cells, 0.07 μg/ml VP1/2 capsid, FIG. 3
[7] = fetal liver cells, B19 parvovirus capsid 0.007 μg/ml, 11 day culture
[8] = fetal liver cells, B19 parvovirus capsid 0.7 μg/ml, 11 day culture
[9] = fetal liver cells, B19 parvovirus capsid 70.0 μg/ml, pre-incubated prior to 11 day culture
[10] = B19 parvovirus capsid 0.0007 μg/ml
[11] = B19 parvovirus capsid 0.007 μg/ml
[12] = B19 parvovirus capsid 0.07 μg/ml
[13] = B19 parvovirus capsid 0.7 μg/ml
[14] = B19 parvovirus capsid 7.0 μg/ml
[15] = compared with fetal liver cells

B19 parvovirus capsid: Recombinant empty B19 parvovirus capsid particles (95% VP2, 5% VP1) from a baculovirus-insect cell expression system
inhibition of fetal liver cell colony formation (human fetal liver cells; B19 parvovirus capsids 0.14 μg/ml, in the absence of sera): significantly inhibited
Colony Counts (% of medium control) BFU-E (human fetal liver cells; [4]): 18% of medium control
Colony Counts (% of medium control) CFU-GEMM (human fetal liver cells; [4]): 63% of medium control
Colony Counts (% of medium control) CFU-GM (human fetal liver cells; [4]): 17% of medium control
Colony Counts (% of medium control) BFU-E (human fetal liver cells; [5]): 43% of medium control
Colony Counts (% of medium control) CFU-GEMM (human fetal liver cells; [5]): 21% of medium control
Colony Counts (% of medium control) CFU-GM (human fetal liver cells; [5]): 30% of medium control
colony formation, % of the medium control (human fetal liver cells; [6]): ~60 % of the medium control
inhibition of colony formation (human fetal liver cells; [6]): approximately 40%
inhibition of colony formation of hematopoietic cells (human fetal liver cells; fetal liver cells, 70.0 μg/ml B19 parvovirus capsid): considerable inhibition
lowest concentration at which inhibition of colony formation of hematopoietic cells was seen (human fetal liver cells; fetal liver cells, 11 day colony formation assay, 'as little as' / 'as low as'): 0.007 µg/mL
Colony Counts (% of medium control) BFU-E (human fetal liver cells; [7]): 79% of medium control
Colony Counts (% of medium control) CFU-GEMM (human fetal liver cells; [7]): 94% of medium control
Colony Counts (% of medium control) CFU-GM (human fetal liver cells; [7]): 95% of medium control
Colony Counts (% of medium control) BFU-E (human fetal liver cells; [8]): 39% of medium control
Colony Counts (% of medium control) CFU-GEMM (human fetal liver cells; [8]): 63% of medium control
Colony Counts (% of medium control) CFU-GM (human fetal liver cells; [8]): 54% of medium control
Colony Counts (% of medium control) BFU-E (human fetal liver cells; [9]): 22% of medium control
Colony Counts (% of medium control) CFU-GEMM (human fetal liver cells; [9]): 31% of medium control
Colony Counts (% of medium control) CFU-GM (human fetal liver cells; [9]): 14% of medium control
primate hematopoietic cell growth [1]: decreased in concordance with an increase in concentration of B19 parvovirus capsid
Colony Counts (% of medium control) BFU-E (adult bone marrow cells; [10]): 86% of medium control
Colony Counts (% of medium control) CFU-GEMM (adult bone marrow cells; [10]): 78% of medium control
Colony Counts (% of medium control) CFU-GM (adult bone marrow cells; [10]): 77% of medium control
Colony Counts (% of medium control) BFU-E (adult bone marrow cells; [11]): 76% of medium control
Colony Counts (% of medium control) CFU-GEMM (adult bone marrow cells; [11]): 78% of medium control
Colony Counts (% of medium control) CFU-GM (adult bone marrow cells; [11]): 80% of medium control
Colony Counts (% of medium control) BFU-E (adult bone marrow cells; [12]): 63% of medium control
Colony Counts (% of medium control) CFU-GEMM (adult bone marrow cells; [12]): 44% of medium control
Colony Counts (% of medium control) CFU-GM (adult bone marrow cells; [12]): 41% of medium control
Colony Counts (% of medium control) BFU-E (adult bone marrow cells; [13]): 43% of medium control
Colony Counts (% of medium control) CFU-GEMM (adult bone marrow cells; [13]): 28% of medium control
Colony Counts (% of medium control) CFU-GM (adult bone marrow cells; [13]): 45% of medium control
Colony Counts (% of medium control) BFU-E (adult bone marrow cells; [14]): 18% of medium control
Colony Counts (% of medium control) CFU-GEMM (adult bone marrow cells; [14]): 6% of medium control
Colony Counts (% of medium control) CFU-GM (adult bone marrow cells; [14]): 36% of medium control
ability to inhibit hematopoietic cells obtained from bone marrow (adult bone marrow cells; [15]): comparable to that exhibited with fetal liver cells
Colony Counts (% of medium control) BFU-E [2, 10]: 84% of medium control
Colony Counts (% of medium control) CFU-GEMM [2, 10]: 93% of medium control
Colony Counts (% of medium control) CFU-GM [2, 10]: 79% of medium control
Colony Counts (% of medium control) BFU-E [2, 11]: 57% of medium control
Colony Counts (% of medium control) CFU-GEMM [2, 11]: 70% of medium control
Colony Counts (% of medium control) CFU-GM [2, 11]: 67% of medium control
Colony Counts (% of medium control) BFU-E [2, 12]: 49% of medium control
Colony Counts (% of medium control) CFU-GEMM [2, 12]: 50% of medium control
Colony Counts (% of medium control) CFU-GM [2, 12]: 72% of medium control
Colony Counts (% of medium control) BFU-E [2, 13]: 33% of medium control
Colony Counts (% of medium control) CFU-GEMM [2, 13]: 43% of medium control
Colony Counts (% of medium control) CFU-GM [2, 13]: 62% of medium control
Colony Counts (% of medium control) BFU-E [2, 14]: 10% of medium control
Colony Counts (% of medium control) CFU-GEMM [2, 14]: 43% of medium control
Colony Counts (% of medium control) CFU-GM [2, 14]: 54% of medium control
growth of cells obtained from human cord blood ([2]; FIG. 1C, varying concentrations of capsid): decreased as the concentration of B19 parvovirus capsid increased
ability to inhibit hematopoietic cells obtained from cord blood [2, 15]: comparable to that exhibited with fetal liver cells
primate hematopoietic cell growth [3]: decreased in concordance with an increase in concentration of B19 parvovirus capsid
